Usually IC50 stands for the concentration that gives 50% inhibition.

The target of this assay is T1, Fatty-acid amide hydrolase 1 (Mus musculus, UniProt O08914).
T1 sequence (O08914 whole entry): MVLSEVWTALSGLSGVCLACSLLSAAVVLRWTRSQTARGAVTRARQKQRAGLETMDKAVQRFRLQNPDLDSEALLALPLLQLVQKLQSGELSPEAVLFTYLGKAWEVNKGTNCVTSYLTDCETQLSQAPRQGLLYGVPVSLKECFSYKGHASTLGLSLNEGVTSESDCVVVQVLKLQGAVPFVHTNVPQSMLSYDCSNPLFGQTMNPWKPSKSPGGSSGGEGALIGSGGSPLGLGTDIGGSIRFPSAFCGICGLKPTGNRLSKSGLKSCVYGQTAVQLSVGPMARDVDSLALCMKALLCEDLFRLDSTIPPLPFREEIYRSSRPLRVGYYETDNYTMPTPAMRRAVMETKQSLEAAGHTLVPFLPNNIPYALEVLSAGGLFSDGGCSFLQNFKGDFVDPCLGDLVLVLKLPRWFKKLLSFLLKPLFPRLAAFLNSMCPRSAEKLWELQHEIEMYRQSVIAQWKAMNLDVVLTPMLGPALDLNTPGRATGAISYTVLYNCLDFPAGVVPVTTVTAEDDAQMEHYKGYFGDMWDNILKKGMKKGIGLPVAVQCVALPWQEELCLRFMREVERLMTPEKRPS
The assay is described as follows: Inhibition of mouse brain FAAH assessed as conversion of [3H-ethanolamine]AEA to [3H]ethanolamine by scintillation counting.
Turning to `C/C(=N\OC(=O)Nc1ccccc1)c1cccc(-c2ccccc2)c1`, the IC50 is 69 nM. With `C/C(=N\OC(=O)Nc1ccccc1)c1cccc(-c2cccc(C(=O)NC(=O)Nc3ccccc3)c2)c1`, the half-maximal inhibitory concentration (IC50) is above 25000 nM.

As to `C/C(=N\OC(=O)N1CCCCC1)c1cccc(-c2ccccc2)c1`, the IC50 worked out at 220 nM. As for `C/C(=N\OC(=O)Nc1cccc2ccccc12)c1ccc(-c2cccs2)s1`, the figure is above 1000 nM; as for `C/C(=N\OC(=O)Nc1cccc2ccccc12)c1ccc(-n2c(C)ccc2C)cc1`, above 1000 nM. The result for `C/C(=N\OC(=O)N(c1ccccc1)c1ccccc1)c1cccc(-c2ccccc2)c1` reads above 50000 nM; that for `C/C(=N\OC(=O)Nc1cccc2ccccc12)c1ccc(C2CCCCC2)cc1`, above 1000 nM; that for `C/C(=N\OC(=O)Nc1ccc2sccc2c1)c1cccc(-c2ccccc2)c1`, 232 nM. As for `C/C(=N\OC(=O)Nc1cccc2ccccc12)c1cccc(-c2ccccc2)c1`, the figure is 10 nM; as for `C/C(=N\OC(=O)Nc1cccc2ccccc12)c1ccc(-c2ccccc2)cc1`, 401 nM.

With `C/C(=N\OC(=O)Nc1ccccc1)c1ccc(-c2ccccc2)cc1`, the IC50 came out at 760 nM. The result for `CCCCCCCCCCCCNC(=O)O/N=C(\C)c1cccc(-c2cccs2)c1` reads 116 nM; that for `COc1ccc(NC(=O)O/N=C(\C)c2cccc(-c3ccccc3)c2)cc1`, 28 nM; that for `C/C(=N\OC(=O)Nc1ccc(F)cc1)c1cccc(-c2ccccc2)c1`, 17 nM. As for `C/C(=N\OC(=O)Nc1ccccc1)c1ccc(-c2cccs2)cc1`, the figure is 200 nM. `C/C(=N\OC(=O)Nc1ccccc1)c1cccc(-c2cccc(C(N)=O)c2)c1`: the half-inhibitory concentration (IC50) stood at 84 nM. The result for `C/C(=N\OC(=O)N1CCCCC1)c1cccc(-c2cccs2)c1` reads 112 nM; that for `C/C(=N\OC(=O)N(C)C)c1ccc(-c2ccccc2)cc1`, above 50000 nM. As for `C/C(=N\OC(=O)NCCCCCc1ccccc1)c1cccc(-c2ccccc2)c1`, the half-inhibitory concentration (IC50) came out at 100 nM.

(Values after ChEMBL document CHEMBL1208724, “A new group of oxime carbamates as reversible inhibitors of fatty acid amide hydrolase” (Bioorg Med Chem Lett, 2010).)
